In publication PMC5012566, “A Cell-Based Assay for Measuring Endogenous BcrAbl Kinase Activity and Inhibitor Resistance” (PLoS ONE, 2016):

Tests used:
K562-NR cells [1] = conditions: cross-resistance, relative to parental
[2] = tested on: chronic myeloid leukemia (CML); conditions: cited from earlier work
K562-NR cells [3] = assay: cells; conditions: Homo sapiens, read-out: Growth Inhibition IC50 (95% CI)
K562-DR cells = assay: cells; conditions: Homo sapiens, read-out: Growth Inhibition IC50 (95% CI)
K562 cells = conditions: parental K562 cells; 10 nM dasatinib; Fig 6C

| Compound | cell growth inhibition (in words) (K562-NR cells [1]) | response rate [2] [%] | IC50 (K562-NR cells [3]) [nM] | IC50 (K562-DR cells) [nM] | cell growth at the level consistent with resistant culture conditions (K562 cells) |
| --- | --- | --- | --- | --- | --- |
| Cc1ccc(NC(=O)c2ccc(CN3CCN(C)CC3)cc2)cc1Nc1nccc(-c2cccnc2)n1 [imatinib] | unable to inhibit growth at any of the concentrations tested | 80 |  |  |  |
| Cc1cn(-c2cc(NC(=O)c3ccc(C)c(Nc4nccc(-c5cccnc5)n4)c3)cc(C(F)(F)F)c2)cn1 [nilotinib] |  |  | 718 | 25 |  |
| Cc1nc(Nc2ncc(C(=O)Nc3c(C)cccc3Cl)s2)cc(N2CCN(CCO)CC2)n1 [dasatinib] | somewhat less potent |  | 3.6 |  | lack of growth |
